Measurements reported in patent US20120128754A1, “TREATMENT OF EYE DISCOMFORT BY TOPICAL ADMINISTRATION OF A COOLING AGENT TO THE EXTERNAL SURFACE OF THE EYELID” (priority 2009, published 2012).
Values after ≈ are worked out from the molar mass of the structure shown.

How the values were obtained:
[1] = tested on: closed eyelids; test: Eye wipe test: cooling sensations after wiping test solution over closed eyelids; format: in vivo, human; conditions: for quality of cooling sensation: CPS-369 1 and 2 mg/mL, CPS-160 2 mg/mL, CPS-030 1, 2, 4, 8 mg/mL; for cooling potency relative to CPS-030: in vivo
Protocol: The general procedure for testing was to weigh an active ingredient and to disperse it within a saline solution (i.e., Bausch & Lomb, Sensitive Eyes Plus Saline Solution) at stock concentrations of 10 to 20 mg/mL. Test solutions were further diluted with isotonic saline. For single assays, a 1 mL scaled pipette was used to dispense 0.8 to 1 mL of test solution onto a sterile 2″×2″ (5 cm×5 cm) pad, made of rayon-polyester formed fabric (Walgreens Sterile Gauze Pads) weighing on average 285±9 mg.
In the next trials, the wet pad was wiped twice over the closed eyelids of each eye from the medial to the lateral canthus. By subtraction, the loss of weight of the pad averaged 32±1 mg. Thus, each eye received ˜16 μL of the test solution per eye. For a 1 mg/mL solution this was equivalent to ˜16 μg per eye.
The presence of cooling sensations was recorded at 2 and 5 minutes after wiping and at 5 minute intervals thereafter. The intensity of the subjective eye sensation was rated as 0, 1, 2 or 3 with: 0 as no change; 1 as slight coolness or cold; 2 as clear-cut signal of coolness or cold; and 3 as comfortable and soothing sensations of cooling or cold. Recording was continued until two successive zeroes were obtained. The data were plotted using SigmaPlot™ (Systat Software, Point Richmond Calif.).
The results for compound CPS-030 are illustrated in FIG. 1, and reflect the averaged values of 6 to 8 separate trials in the same individual.
FIG. 1 is a graph of cooling intensity versus hours after application of CPS-030 with eye wipes for four dosages (128 μg, 64 μg, 32 μg, and 16 μg; per eye), and illustrates the dose-response data for CPS-030 on cooling sensations after application with eye wipes. The dose reported in μg is per eye, based on solutions of 1.0, 2.0, 4.0 and 8.0 mg of CPS-030 per mL of saline, applied in a volume of 16 μL per eye. […] Confirmatory trials of cooling action for CPS-030 were obtained in 4 individuals.

[2] = tested on: closed eyelids; test: as above; format: in vivo, human; conditions: for sensations accompanying cooling: 1 mg/mL in 1 or 2% ethanol-water, closed eyelids
[3] = Observed solubility in vehicle; format: physicochemical; conditions: for solubility in 1 or 2% ethanol-water solution: higher concentrations not achievable without more ethanol
Excerpt: Wei, 2008 describes delivery of cooling compounds to the skin using a towelette. The wiping of the towelette across skin results in delivery of dermatologically active ingredient(s), meaning that the skin is substantially medicated. […] An ethanol/water mixture with an ethanol concentration of about 5 wt % is required in order to dissolve enough of these compounds to provide a sufficient degree of cooling to relieve eye discomfort; however, at this concentration the ethanol is irritating to the eye surface.
(§1) 2-[((1R,2S,5R)-2-isopropyl-5-methyl-cyclohexanecarbonyl)-amino]-acetic acid 3-hydroxypropyl ester, referred to as CPS-160 (see, e.g., Wei, 2008) was synthesized and tested. […] Thus, CPS-160 was not considered to be an optimal cooling agent for practicing the invention.
(§2) It has a good safety profile because the expected hydrolysis products are the carboxylic acid and glycerol.
Thus, water solubility, as embodied in CPS-030, is a key factor for an ideal API.

[4] = tested on: closed eyelids; test: Case reports: eye wipe in subjects with eye strain or dry eyes syndrome; format: in vivo, human; conditions: person
Protocol: A person routinely spent about 12 hour each day in front of a computer monitor and developed headaches and blurred vision. A visit to a general physician gave a diagnosis of eye strain, but the addiction to the computer monitor continued. The subject found some relief by putting a cold wet towel on their face, but the relief was only temporary. They volunteered to test an eye wipe containing 0.8 mL of a 4 mg/mL solution of CPS-030 and was given instructions on how to wipe the solution onto the eyelids with the eyes closed. […] During this time, the subject watched a basketball playoff game on television and noted that they could clearly distinguish scores on the 46 inch (117 cm) HDTV monitor which were previously indecipherable. For example, they could clearly see scores of 65 vs. 66, and of 98 vs. 99. […] The subject continues to use the eye wipes as an aid to their vision on an “as needed basis”, and the improved visual acuity is a reproducible event.
Their principal complaints were of dryness, itch, and discomfort at the corner of their eyes and blurred vision. These symptoms were present on a daily basis at various levels of intensity. […] It was not clear if they adhered to a strict regimen of self-administration, but they complained of the eye drops running down their cheeks and the expense of the medications. When the symptoms were severe, the subject found some relief by wetting their eyes with cold tap water, but the relief was only temporary. They volunteered to test an eye wipe containing 0.8 mL of a 4 mg/mL solution of CPS-030, and was given instructions on how to apply the solution onto the eyelids with the eyes shut.

[5] = Stability of test solutions stored at room temperature (retention of cooling activity); format: physicochemical; conditions: saline solution
Excerpt: as §1, §2

[6] = dry eyes syndrome, eye wipe 0.8 mL of 4 mg/mL
[7] = eye strain, eye wipe 0.8 mL of 4 mg/mL

## CCOC(=O)[C@@H](C)NC(=O)[C@@H]1C[C@H](C)CC[C@H]1C(C)C [Compound 12, (R)-2-[((1R,2S,5R)-2-isopropyl-5-methyl-cyclohexanecarbonyl)-amino]-propionic acid ethyl ester]
[1]; 1 mg/mL dispersed in saline, eye wipe
  duration of cooling: approximately 1.5 hours
[1]; 2 mg/mL in saline, eye wipe
  duration of cooling: ~2.5 h
[1]; saline, eye wipe
  quality of cooling sensation: Robust and refreshing cooling
[1]; solid dispersed in saline, 1 and 2 mg/mL
  side-effect when eyelids get wet after testing: the cooling sensations returned, sometimes with an intensity that could cause discomfort
[2]; 30 mg in 0.1 mL ethanol + 7.4 mL glycerol + 7.5 mL water
  cooling sensation: Mild and persistent cooling

## CC(C)[C@@H]1CC[C@@H](C)C[C@H]1C(=O)OCC(O)CO (stereo partly drawn) [Compound 1, (1R,2S,5R)-2-isopropyl-5-methyl-cyclohexanecarboxylic acid 2,3-dihydroxy-propyl ester]
[3]
  solubility in saline solution: miscible and solubilized in saline solution
[1]; 32 μg, 64 μg and 128 μg per eye, saline, eye wipe
  sensations accompanying cooling: cooling was accompanied by a sensation of “wetness” and increased visual acuity
[1]; 4.0 mg/mL in saline, 16 μL per eye, sterile pad
  duration of eye refreshment: approximately 1 hour
[1]; all dosages tested (16-128 μg per eye)
  sensations of sting, irritation or pain: no sensations of sting, irritation, or pain
[1]; delivered via a 2.0 mg/mL solution in an eye wipe
  effective dose via eye wipe: ~32 μg/eye
[1]; saline, eye wipe
  quality of cooling sensation: Robust and refreshing cooling
[4]; dry eyes syndrome, as needed for three months
  symptomatic relief on as-needed use: expressed satisfaction at the relief of eye discomfort
[4]; [6]
  duration of cooling and soothing sensations: at least 1 hour
  onset of cooling and soothing sensations: Within two minutes
  sensations reported: sensation of “wetness”, and a feeling of soothing and comfort
[4]; [7]
  duration of cooling and soothing sensations: at least two hours
  effect on visual acuity: increase in visual acuity
  onset of cooling and soothing sensations: Within two minutes
[5]
  stability of solution stored at room temperature: retained biological potency when stored at room temperature for at least three weeks

## CC(C)[C@@H]1CC[C@@H](C)C[C@H]1C(=O)OCCOCCO [Compound 2]
[1]; 10 mg/mL, eye wipe
  duration of cooling: less than 30 minutes
[1]; 10 mg/mL, eye wipe, scale 0-3
  cooling intensity: < 2 coolness units

## CC(C)[C@@H]1CC[C@@H](C)C[C@H]1C(=O)OCCO [Compound 3]
[1]; higher two doses of 32 to 160 μg/eye range
  adverse sensations: brief period of warmth sensations on the eye surface and increased lachrymation
[1]
  cooling potency relative to CPS-030: about half the potency of CPS-030

## COC(=O)CNC(=O)[C@@H]1C[C@H](C)CC[C@H]1C(C)C [Compound 10, reference compound]
[3]
  solubility in 1 or 2% ethanol-water solution: 1000 µg/mL (≈ 3.92 mM)
[1]
  cooling potency relative to CPS-030: more potent cooling activity than CPS-030
[2]
  sensations accompanying cooling: without any sensations of wetness or increased visual acuity

## COC(=O)[C@@H](C)NC(=O)[C@@H]1C[C@H](C)CC[C@H]1C(C)C [Compound 9]
[3]
  solubility in 1 or 2% ethanol-water solution: 1000 µg/mL (≈ 3.71 mM)
[1]
  cooling potency relative to CPS-030: more potent cooling activity than CPS-030
[2]
  sensations accompanying cooling: without any sensations of wetness or increased visual acuity

## CC(C)[C@@H]1CC[C@@H](C)C[C@H]1C(=O)NCC(=O)OCCCO [CPS-160, 2-[((1R,2S,5R)-2-isopropyl-5-methyl-cyclohexanecarbonyl)-amino]-acetic acid 3-hydroxypropyl ester]
[3]
  solubility in saline solution: solubilized in saline solution
[1]; 2 mg/mL in saline, eye wipe
  duration of cooling: approximately 0.6 hours
[1]; saline, eye wipe
  quality of cooling sensation: Robust and refreshing cooling
[5]
  stability of solution stored at room temperature: not stable and became inactive after 2 days
